According to the supplement of paper PMC10307832:

Experiments:
Test in all cases: relative viability (nuclei count vs DMSO), 5 days (fraction); higher = more cells survive
HCC-15 = tested on: HCC-15
How it was run: (§1)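 Lung cancer cell lines were seeded in 1536-well plates and dosed by pin tool the next day, with either a single drug or a fixed anchor-drug dose combined with five library-drug doses (not always all listed) spaced in √10 steps. Five days later, one step fixed the cells and stained their nuclei (final 0.05% Triton X-100, 1% formaldehyde, 1 ug/ml Hoechst), and nuclei were counted on 4× images. Relative viability is the nuclei count in treated wells divided by the count in vehicle wells, and each value is the median of duplicate plates.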

NCI-H2170 = tested on: NCI-H2170
How it was run: as §1

NCI-H1734 = tested on: NCI-H1734
How it was run: as §1

EPLC-272H = tested on: EPLC-272H
How it was run: as §1

NCI-H441 = tested on: NCI-H441
How it was run: as §1

NCI-H647 = tested on: NCI-H647
How it was run: as §1

NCI-H2023 = tested on: NCI-H2023
How it was run: as §1

NCI-H1563 = tested on: NCI-H1563
How it was run: as §1

LOU-NH91 = tested on: LOU-NH91
How it was run: as §1

NCI-H3122 = tested on: NCI-H3122
How it was run: as §1

NCI-H520 = tested on: NCI-H520
How it was run: as §1

UMC-11 = tested on: UMC-11
How it was run: as §1

NCI-H1793 = tested on: NCI-H1793
How it was run: as §1

NCI-H322M = tested on: NCI-H322M
How it was run: as §1

NCI-H2405 = tested on: NCI-H2405
How it was run: as §1

NCI-H1650 = tested on: NCI-H1650
How it was run: as §1

PC-14 = tested on: PC-14
How it was run: as §1

H3255 = tested on: H3255
How it was run: as §1

SW 900 = tested on: SW 900
How it was run: as §1

NCI-H2347 = tested on: NCI-H2347
How it was run: as §1

201T = tested on: 201T
How it was run: as §1

COR-L23 = tested on: COR-L23
How it was run: as §1

COc1cc2nccc(Oc3ccc(NC(=O)Nc4cc(C)on4)c(Cl)c3)c2cc1OC [Tivozanib] + COc1cccc2cc(-c3nc([C@H]4CC[C@H](C(=O)O)CC4)n4ncnc(N)c34)[nH]c12 [OSI-027] (partner 0.5 µM)
relative viability (HCC-15; first compound 0.005 µM): 0.547 | relative viability (HCC-15; first compound 0.01581 µM): 0.672 | relative viability (HCC-15; first compound 0.05 µM): 0.711 | relative viability (HCC-15; first compound 0.1581 µM): 0.571 | relative viability (HCC-15; first compound 0.5 µM): 0.61 | relative viability (NCI-H2170; first compound 0.005 µM): 0.633 | relative viability (NCI-H2170; first compound 0.01581 µM): 0.78 | relative viability (NCI-H2170; first compound 0.05 µM): 0.723 | relative viability (NCI-H2170; first compound 0.1581 µM): 0.464 | relative viability (NCI-H2170; first compound 0.5 µM): 0.661 | relative viability (NCI-H1734; first compound 0.005 µM): 0.567 | relative viability (NCI-H1734; first compound 0.01581 µM): 0.621 | relative viability (NCI-H1734; first compound 0.05 µM): 0.592 | relative viability (NCI-H1734; first compound 0.1581 µM): 0.429 | relative viability (NCI-H1734; first compound 0.5 µM): 0.558 | relative viability (EPLC-272H; first compound 0.005 µM): 0.268 | relative viability (EPLC-272H; first compound 0.01581 µM): 0.318 | relative viability (EPLC-272H; first compound 0.05 µM): 0.299 | relative viability (EPLC-272H; first compound 0.1581 µM): 0.244 | relative viability (EPLC-272H; first compound 0.5 µM): 0.294 | relative viability (NCI-H441; first compound 0.005 µM): 0.453 | relative viability (NCI-H441; first compound 0.01581 µM): 0.506 | relative viability (NCI-H441; first compound 0.05 µM): 0.78 | relative viability (NCI-H441; first compound 0.1581 µM): 0.563 | relative viability (NCI-H441; first compound 0.5 µM): 0.344 | relative viability (NCI-H647; first compound 0.005 µM): 0.74 | relative viability (NCI-H647; first compound 0.01581 µM): 0.618 | relative viability (NCI-H647; first compound 0.05 µM): 0.728 | relative viability (NCI-H647; first compound 0.1581 µM): 0.526 | relative viability (NCI-H647; first compound 0.5 µM): 0.658 | relative viability (NCI-H2023; first compound 0.005 µM): 0.393 | relative viability (NCI-H2023; first compound 0.01581 µM): 0.386 | relative viability (NCI-H2023; first compound 0.05 µM): 0.381 | relative viability (NCI-H2023; first compound 0.1581 µM): 0.272 | relative viability (NCI-H2023; first compound 0.5 µM): 0.324 | relative viability (NCI-H1563; first compound 0.005 µM): 0.751 | relative viability (NCI-H1563; first compound 0.01581 µM): 0.773 | relative viability (NCI-H1563; first compound 0.05 µM): 0.784 | relative viability (NCI-H1563; first compound 0.1581 µM): 0.718 | relative viability (NCI-H1563; first compound 0.5 µM): 0.817 | relative viability (LOU-NH91; first compound 0.005 µM): 0.695 | relative viability (LOU-NH91; first compound 0.01581 µM): 0.807 | relative viability (LOU-NH91; first compound 0.05 µM): 0.762 | relative viability (LOU-NH91; first compound 0.1581 µM): 0.61 | relative viability (LOU-NH91; first compound 0.5 µM): 0.729 | relative viability (NCI-H3122; first compound 0.005 µM): 0.971 | relative viability (NCI-H3122; first compound 0.01581 µM): 0.98 | relative viability (NCI-H3122; first compound 0.05 µM): 1.05 | relative viability (NCI-H3122; first compound 0.1581 µM): 0.859 | relative viability (NCI-H3122; first compound 0.5 µM): 0.925 | relative viability (NCI-H520; first compound 0.005 µM): 0.244 | relative viability (NCI-H520; first compound 0.01581 µM): 0.249 | relative viability (NCI-H520; first compound 0.05 µM): 0.267 | relative viability (NCI-H520; first compound 0.1581 µM): 0.167 | relative viability (NCI-H520; first compound 0.5 µM): 0.313 | relative viability (UMC-11; first compound 0.005 µM): 0.491 | relative viability (UMC-11; first compound 0.01581 µM): 0.451 | relative viability (UMC-11; first compound 0.05 µM): 0.536 | relative viability (UMC-11; first compound 0.5 µM): 0.426 | relative viability (NCI-H1793; first compound 0.005 µM): 0.225 | relative viability (NCI-H1793; first compound 0.01581 µM): 0.219 | relative viability (NCI-H1793; first compound 0.05 µM): 0.344 | relative viability (NCI-H1793; first compound 0.1581 µM): 0.249 | relative viability (NCI-H1793; first compound 0.5 µM): 0.235 | relative viability (NCI-H322M; first compound 0.005 µM): 0.513 | relative viability (NCI-H322M; first compound 0.01581 µM): 0.603 | relative viability (NCI-H322M; first compound 0.05 µM): 0.545 | relative viability (NCI-H322M; first compound 0.1581 µM): 0.455 | relative viability (NCI-H322M; first compound 0.5 µM): 0.461 | relative viability (NCI-H2405; first compound 0.005 µM): 0.631 | relative viability (NCI-H2405; first compound 0.01581 µM): 0.716 | relative viability (NCI-H2405; first compound 0.05 µM): 0.684 | relative viability (NCI-H2405; first compound 0.1581 µM): 0.526 | relative viability (NCI-H2405; first compound 0.5 µM): 0.577 | relative viability (NCI-H1650; first compound 0.005 µM): 0.524 | relative viability (NCI-H1650; first compound 0.01581 µM): 0.746 | relative viability (NCI-H1650; first compound 0.05 µM): 0.709 | relative viability (NCI-H1650; first compound 0.1581 µM): 0.591 | relative viability (NCI-H1650; first compound 0.5 µM): 0.558 | relative viability (PC-14; first compound 0.005 µM): 0.695 | relative viability (PC-14; first compound 0.01581 µM): 0.928 | relative viability (PC-14; first compound 0.05 µM): 0.83 | relative viability (PC-14; first compound 0.1581 µM): 0.664 | relative viability (PC-14; first compound 0.5 µM): 0.664 | relative viability (H3255; first compound 0.005 µM): 0.571 | relative viability (H3255; first compound 0.01581 µM): 0.597 | relative viability (H3255; first compound 0.05 µM): 0.634 | relative viability (H3255; first compound 0.1581 µM): 0.47 | relative viability (H3255; first compound 0.5 µM): 0.556 | relative viability (SW 900; first compound 0.005 µM): 0.556 | relative viability (SW 900; first compound 0.01581 µM): 0.501 | relative viability (SW 900; first compound 0.05 µM): 0.641 | relative viability (SW 900; first compound 0.1581 µM): 0.301 | relative viability (SW 900; first compound 0.5 µM): 0.518 | relative viability (NCI-H2347; first compound 0.01581 µM): 0.373 | relative viability (NCI-H2347; first compound 0.05 µM): 0.262 | relative viability (NCI-H2347; first compound 0.5 µM): 0.408 | relative viability (201T; first compound 0.005 µM): 0.777 | relative viability (201T; first compound 0.01581 µM): 0.798 | relative viability (201T; first compound 0.05 µM): 0.36 | relative viability (201T; first compound 0.1581 µM): 0.572 | relative viability (201T; first compound 0.5 µM): 0.709 | relative viability (COR-L23; first compound 0.005 µM): 0.74 | relative viability (COR-L23; first compound 0.01581 µM): 0.715 | relative viability (COR-L23; first compound 0.05 µM): 0.799 | relative viability (COR-L23; first compound 0.1581 µM): 0.617 | relative viability (COR-L23; first compound 0.5 µM): 0.647
